Tests used:
Format in all cases: cell-based
human GLUT3 = target: T1, human GLUT3 (Homo sapiens, UniProt P11169); assay: [3H]-deoxy-D-glucose uptake assay, GLUT3; settings: [3H]-deoxy-D-glucose uptake in HEK293 cells stably expressing human GLUT3
T1 construct: expressed in transfected cells
T1 sequence (P11169 1-496): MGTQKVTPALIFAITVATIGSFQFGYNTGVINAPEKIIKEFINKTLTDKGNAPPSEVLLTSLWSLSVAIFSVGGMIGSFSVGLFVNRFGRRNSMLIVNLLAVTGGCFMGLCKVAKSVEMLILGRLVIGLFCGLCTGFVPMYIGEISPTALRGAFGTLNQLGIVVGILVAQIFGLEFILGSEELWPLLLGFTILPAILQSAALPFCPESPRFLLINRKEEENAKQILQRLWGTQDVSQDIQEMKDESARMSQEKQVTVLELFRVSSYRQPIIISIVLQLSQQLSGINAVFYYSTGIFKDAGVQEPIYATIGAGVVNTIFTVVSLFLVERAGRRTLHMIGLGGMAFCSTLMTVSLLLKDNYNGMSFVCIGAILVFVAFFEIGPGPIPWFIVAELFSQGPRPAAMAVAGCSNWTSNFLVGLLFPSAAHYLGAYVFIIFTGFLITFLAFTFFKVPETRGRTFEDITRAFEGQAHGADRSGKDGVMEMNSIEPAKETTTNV
Procedure: (§1) HEK293 cells were engineered to stably express either human GLUT1, GLUT2, GLUt3 or GLUT4 by transfection with the pReceiver-Lv105 plasmid, containing either hGLUT1, hGLUT2, hGLUT3, or hGLUT4 gene constructs with lipofectamine 2000, hGLUT1- hGLUT2- hGLUT3- or hGLUT4-overexpressing polyclonal populations were isolated under purinomycin selective pressure (1 μg/ml) and maintained in Dulbecco's modified Eagle's medium supplemented with 1 μg/ml purinomycin+10% foetal bovine serum (FBS).
(§2) 60,000 cells per well were seeded overnight into poly-D-lysine coasted 96-well plates. Following media removal, cells were washed twice in warm glucose-free uptake buffer (25 mM HEPES/KOH pH 7.4, 125 mM NaCl, 4.8 mM KCl, 1.2 mM MgSO4, 1.2 mM CaCl2, 1.2 mM KH2PO4). 90 μl of test compounds were added in glucose-free uptake buffer and cells were incubated at 37° C. for 30 min. 10 μl of [3H]-deoxy-D-glucose (0.25 μCi, 125 μM final assay concentration) was then added per well in glucose-free uptake buffer and uptake was allowed to proceed at 37° C. for 30 min.
(§3) Cells were then washed twice with ice-cold PBS and 100 μl of Microscint-20 was added per well. Glucose uptake was quantified with a scintillation counter. The half maximal inhibitory concentration (IC50) (a measure of the effectiveness of the test compound in inhibiting glucose uptake) was determined.

human GLUT2 = target: T2, human GLUT2 (Homo sapiens, UniProt P11168); assay: [3H]-deoxy-D-glucose uptake assay, GLUT2; settings: [3H]-deoxy-D-glucose uptake in HEK293 cells stably expressing human GLUT2
T2 construct: expressed in transfected cells
T2 sequence (P11168 1-524): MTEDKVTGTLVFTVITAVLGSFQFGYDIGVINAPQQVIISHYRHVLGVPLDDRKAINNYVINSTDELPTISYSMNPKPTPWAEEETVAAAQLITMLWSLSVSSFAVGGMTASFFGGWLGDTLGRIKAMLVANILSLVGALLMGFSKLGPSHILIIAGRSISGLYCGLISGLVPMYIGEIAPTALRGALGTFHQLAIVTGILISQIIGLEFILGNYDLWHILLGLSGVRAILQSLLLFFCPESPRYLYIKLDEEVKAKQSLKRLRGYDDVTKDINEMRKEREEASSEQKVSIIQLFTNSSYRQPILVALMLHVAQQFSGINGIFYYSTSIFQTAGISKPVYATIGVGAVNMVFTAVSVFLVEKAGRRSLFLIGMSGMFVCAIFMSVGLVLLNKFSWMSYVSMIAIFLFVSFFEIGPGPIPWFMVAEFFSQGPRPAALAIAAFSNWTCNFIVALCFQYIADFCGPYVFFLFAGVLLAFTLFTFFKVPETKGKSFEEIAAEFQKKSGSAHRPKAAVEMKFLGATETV
Procedure, shortened: (§4)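 HEK293 cells stably overexpressing human GLUT1 or GLUT2, seeded at 60,000 per well, treated with compounds in glucose-free uptake buffer for 30 min at 37 °C. [3H]-deoxy-D-glucose uptake quantified by scintillation counting after ice-cold PBS washes; IC50 determined.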

human GLUT1 = target: T3, human GLUT1 (Homo sapiens, UniProt P11166); assay: [3H]-deoxy-D-glucose uptake assay, GLUT1; settings: [3H]-deoxy-D-glucose uptake in HEK293 cells stably expressing human GLUT1
T3 construct: expressed in transfected cells
T3 sequence (P11166 1-492): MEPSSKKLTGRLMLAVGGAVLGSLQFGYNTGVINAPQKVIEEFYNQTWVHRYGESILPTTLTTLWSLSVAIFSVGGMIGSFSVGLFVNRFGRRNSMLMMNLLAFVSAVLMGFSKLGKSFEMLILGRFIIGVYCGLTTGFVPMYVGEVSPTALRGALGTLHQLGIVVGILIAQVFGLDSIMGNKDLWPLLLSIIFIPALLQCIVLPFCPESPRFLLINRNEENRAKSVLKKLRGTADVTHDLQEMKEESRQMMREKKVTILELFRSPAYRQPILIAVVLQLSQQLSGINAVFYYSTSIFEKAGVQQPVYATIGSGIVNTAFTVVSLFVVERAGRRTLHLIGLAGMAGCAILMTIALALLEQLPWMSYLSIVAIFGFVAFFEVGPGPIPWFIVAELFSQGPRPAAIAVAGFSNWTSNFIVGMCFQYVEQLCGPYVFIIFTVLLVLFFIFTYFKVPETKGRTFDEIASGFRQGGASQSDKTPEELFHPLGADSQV
Procedure, shortened: as §4

human GLUT4 = target: T4, human GLUT4 (Homo sapiens, UniProt P14672); assay: [3H]-deoxy-D-glucose uptake assay, GLUT4; settings: [3H]-deoxy-D-glucose uptake in HEK293 cells stably expressing human GLUT4
T4 construct: expressed in transfected cells
T4 sequence (P14672 1-509): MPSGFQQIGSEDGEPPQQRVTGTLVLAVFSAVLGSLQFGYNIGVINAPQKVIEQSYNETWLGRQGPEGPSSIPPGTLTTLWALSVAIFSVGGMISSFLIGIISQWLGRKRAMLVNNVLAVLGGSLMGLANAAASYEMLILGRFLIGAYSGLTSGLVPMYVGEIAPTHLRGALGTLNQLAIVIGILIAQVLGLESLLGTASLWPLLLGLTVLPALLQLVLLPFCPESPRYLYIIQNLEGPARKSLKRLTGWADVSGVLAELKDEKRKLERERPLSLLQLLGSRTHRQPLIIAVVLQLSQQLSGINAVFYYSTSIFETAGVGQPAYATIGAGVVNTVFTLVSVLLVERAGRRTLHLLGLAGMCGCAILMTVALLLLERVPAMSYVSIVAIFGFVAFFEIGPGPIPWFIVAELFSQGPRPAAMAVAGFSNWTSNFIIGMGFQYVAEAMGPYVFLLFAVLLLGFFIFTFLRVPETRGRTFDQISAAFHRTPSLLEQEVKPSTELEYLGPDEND
Procedure: as §1, §2, §3

| GLUT3 pIC50 (human GLUT3) | GLUT2 pIC50 (human GLUT2) | GLUT1 pIC50 (human GLUT1) | GLUT4 pIC50 (human GLUT4) | Structure (SMILES) |
| --- | --- | --- | --- | --- |
| +++ (pIC50 ≧ 6.00) | +− (pIC50 < 4.00) | +++ (pIC50 ≧ 6.00) | +++ (pIC50 ≧ 6.00) | CCCS(=O)(=O)N(C)c1ccc2nc(-c3ccc(Cl)cc3)c(CN3CCN(C(C)=O)CC3)n2c1 [Compound 341] |
| +++ (pIC50 ≧ 6.00) | ++ (pIC50 5.00-5.99) | +++ (pIC50 ≧ 6.00) | +++ (pIC50 ≧ 6.00) | CC(=O)N1CCN(Cc2c(-c3ccc(Cl)cc3)nc3ccc(S(=O)(=O)N(C)C)cn23)CC1 [Compound 350] |
| +++ (pIC50 ≧ 6.00) | ++ (pIC50 5.00-5.99) | +++ (pIC50 ≧ 6.00) | +++ (pIC50 ≧ 6.00) | CNS(=O)(=O)c1ccc2nc(-c3ccc(Cl)cc3)c(CN3CCN(C(C)=O)CC3)n2c1 [Compound 351] |
| +++ (pIC50 ≧ 6.00) | ++ (pIC50 5.00-5.99) | +++ (pIC50 ≧ 6.00) | +++ (pIC50 ≧ 6.00) | CCN(c1ccc2nc(-c3ccc(Cl)cc3)c(CN3CCN(C(C)=O)CC3)n2c1)S(C)(=O)=O [Compound 353] |
| +++ (pIC50 ≧ 6.00) | ++ (pIC50 5.00-5.99) | +++ (pIC50 ≧ 6.00) | +++ (pIC50 ≧ 6.00) | CC(=O)N1CCN(Cc2c(-c3ccc(Cl)cc3)nc3ccc(N(C(C)C)S(C)(=O)=O)cn23)CC1 [Compound 365] |
| +++ (pIC50 ≧ 6.00) | +++ (pIC50 ≧ 6.00) | +++ (pIC50 ≧ 6.00) | +++ (pIC50 ≧ 6.00) | CC(=O)N1CCN(Cc2c(-c3ccc(Cl)cc3Cl)nc3ccc(N(C(F)F)S(C)(=O)=O)cn23)CC1 [Compound 367] |
| +++ (pIC50 ≧ 6.00) | +++ (pIC50 ≧ 6.00) | +++ (pIC50 ≧ 6.00) | +++ (pIC50 ≧ 6.00) | CC(=O)N1CCN(Cc2c(-c3ccc(Cl)cc3)nc3ccc(N(C(F)F)S(C)(=O)=O)cn23)CC1 [Compound 368] |

The remaining lines, values behind:

| Structure (SMILES) | GLUT3 pIC50 (human GLUT3) | GLUT2 pIC50 (human GLUT2) | GLUT1 pIC50 (human GLUT1) | GLUT4 pIC50 (human GLUT4) |
| --- | --- | --- | --- | --- |
| CN(c1ccc2nc(-c3ccc(Cl)cc3Cl)c(CN3CCn4ncnc4C3)n2c1)S(C)(=O)=O [Compound 346] | +++ (pIC50 ≧ 6.00) | ++ (pIC50 5.00-5.99) | +++ (pIC50 ≧ 6.00) | +++ (pIC50 ≧ 6.00) |
| CN(c1ccc2nc(-c3ccc(Cl)cc3Cl)c(CN3CCNC(=O)C3)n2c1)S(C)(=O)=O [Compound 355] | +++ (pIC50 ≧ 6.00) | +++ (pIC50 ≧ 6.00) | +++ (pIC50 ≧ 6.00) | +++ (pIC50 ≧ 6.00) |
| CS(=O)(=O)Nc1ccc2nc(-c3ccc(Cl)cc3Cl)c(CN3CCN(C(=O)c4ccnnc4)CC3)n2c1 [Compound 356] | +++ (pIC50 ≧ 6.00) | +++ (pIC50 ≧ 6.00) | +++ (pIC50 ≧ 6.00) | +++ (pIC50 ≧ 6.00) |
| CS(=O)(=O)Nc1ccc2nc(-c3ccc(Cl)cc3Cl)c(CN3CCN(C(=O)c4ccc(F)cc4)CC3)n2c1 [Compound 360] | +++ (pIC50 ≧ 6.00) | ++ (pIC50 5.00-5.99) | +++ (pIC50 ≧ 6.00) | +++ (pIC50 ≧ 6.00) |
| CC(C)(O)C(=O)N1CCN(Cc2c(-c3ccc(Cl)cc3Cl)nc3ccc(NS(C)(=O)=O)cn23)CC1 [Compound 361] | +++ (pIC50 ≧ 6.00) | ++ (pIC50 5.00-5.99) | +++ (pIC50 ≧ 6.00) | +++ (pIC50 ≧ 6.00) |
| CN(c1ccc2nc(-c3ccc(Cl)cc3Cl)c(CN3CCN(C(=O)c4ccc(F)cc4)CC3)n2c1)S(C)(=O)=O [Compound 363] | +++ (pIC50 ≧ 6.00) | +++ (pIC50 ≧ 6.00) | +++ (pIC50 ≧ 6.00) | +++ (pIC50 ≧ 6.00) |
| CC(C)c1cn2c(CN3CCOCC3)c(-c3ccc(Cl)cc3Cl)nc2cn1 [Compound 366] | +++ (pIC50 ≧ 6.00) | +++ (pIC50 ≧ 6.00) | +++ (pIC50 ≧ 6.00) | +++ (pIC50 ≧ 6.00) |

Reference: patent publication US20160120863A1, “SLC2A TRANSPORTER INHIBITORS” (IOMET PHARMA LTD., priority 2013, published 2016)
